Test results published in ChEMBL document CHEMBL1201862, “PubChem BioAssay data set” (2004).
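Cells were grown in 96-well plates and exposed to each compound for 48 hours at five concentrations; endpoints were interpolated linearly between bracketing concentrations, or set to the highest concentration if not reached. GI50 = concentration required for 50% inhibition of growth.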 The source made the active and inactive calls. Rule as the data show it: active = GI50 up to about 1.1 µM and inactive = higher.

How the values were obtained:
Assay in all cases: NCI-60 cell line screen, 48 h
NCI-H23 = system: NCI-H23
NCI/ADR-RES = system: NCI/ADR-RES
HOP-62 = system: HOP-62
SK-MEL-28 = system: SK-MEL-28
ACHN = system: ACHN
DU-145 = system: DU-145
T47D = system: T47D
COLO 205 = system: COLO 205
MDA-MB-231 = system: MDA-MB-231
NCI-H226 = system: NCI-H226
CAKI-1 = system: CAKI-1
OVCAR-8 = system: OVCAR-8
OVCAR-3 = system: OVCAR-3
RPMI-8226 = system: RPMI-8226
SW-620 = system: SW-620
SK-OV-3 = system: SK-OV-3
UO-31 = system: UO-31
MOLT-4 = system: MOLT-4
NCI-H522 = system: NCI-H522
BT-549 = system: BT-549

Row | Structure (SMILES) | GI50 (NCI-H23) | GI50 (NCI/ADR-RES) | GI50 (HOP-62) | GI50 (SK-MEL-28) | GI50 (ACHN) | GI50 (DU-145) | GI50 (T47D) | GI50 (COLO 205) | GI50 (MDA-MB-231) | GI50 (NCI-H226) | GI50 (CAKI-1) | GI50 (OVCAR-8) | GI50 (OVCAR-3) | GI50 (RPMI-8226) | GI50 (SW-620) | GI50 (SK-OV-3) | GI50 (UO-31) | GI50 (MOLT-4) | GI50 (NCI-H522) | GI50 (BT-549)
1 | CC12CCCCC1=[N+]([O-])C(C)(C)N2O (stereo not drawn) | > 100 µM (inactive) | > 100 µM (inactive) | > 100 µM (inactive) | > 100 µM (inactive) | > 100 µM (inactive) | > 100 µM (inactive) | > 100 µM (inactive) | > 100 µM (inactive) | > 100 µM (inactive) | > 100 µM (inactive) | > 100 µM (inactive) | > 100 µM (inactive) | > 100 µM (inactive) | > 100 µM (inactive) | > 100 µM (inactive) | > 100 µM (inactive) | > 100 µM (inactive) | – | – | –
2 | CN(C)c1nc(NN)c2c(-c3ccccc3)c(-c3ccccc3)oc2n1 | > 100 µM (inactive) | > 100 µM (inactive) | – | > 100 µM (inactive) | > 100 µM (inactive) | > 100 µM (inactive) | > 100 µM (inactive) | > 100 µM (inactive) | > 100 µM (inactive) | > 100 µM (inactive) | > 100 µM (inactive) | > 100 µM (inactive) | – | > 100 µM (inactive) | > 100 µM (inactive) | > 100 µM (inactive) | > 100 µM (inactive) | > 100 µM (inactive) | 68.2 µM (inactive) | –
3 | CCN(CCCl)c1cc(CN(C)C)cc(NC(=O)c2ccc(C(=O)Nc3cccc(CN(C)C)c3)cc2)c1 | 1.54 µM (inactive) | > 100 µM (inactive) | 0.326 µM (active) | 2.07 µM (inactive) | 2.94 µM (inactive) | 3.74 µM (inactive) | 1.91 µM (inactive) | 1.13 µM (inactive) | 28.1 µM (inactive) | 3.21 µM (inactive) | 32.6 µM (inactive) | 0.889 µM (active) | – | 2.16 µM (inactive) | 0.225 µM (active) | 1.91 µM (inactive) | 27.7 µM (inactive) | 0.261 µM (active) | 0.0161 µM (active) | –
4 | COc1cc(C2c3cc4c(cc3OC(C)(O)C2C)OCO4)cc(OC)c1OC (stereo not drawn) | 0.745 µM (active) | 0.316 µM (active) | 0.335 µM (active) | – | 0.938 µM (active) | 0.456 µM (active) | – | 0.49 µM (active) | 0.433 µM (active) | 1.31 µM (inactive) | 12.2 µM (inactive) | 0.217 µM (active) | 0.316 µM (active) | 0.237 µM (active) | 0.349 µM (active) | – | 0.857 µM (active) | 0.513 µM (active) | 0.235 µM (active) | 5.42 µM (inactive)
5 | Cc1ccc(/C=N/Nc2ncccn2)s1 | > 100 µM (inactive) | > 100 µM (inactive) | > 100 µM (inactive) | > 100 µM (inactive) | > 100 µM (inactive) | – | > 100 µM (inactive) | > 100 µM (inactive) | > 100 µM (inactive) | > 100 µM (inactive) | > 100 µM (inactive) | > 100 µM (inactive) | > 100 µM (inactive) | > 100 µM (inactive) | > 100 µM (inactive) | > 100 µM (inactive) | > 100 µM (inactive) | – | > 100 µM (inactive) | –
6 | FC1=C2C3CCC(C3)C2C1(F)F (stereo not drawn) | > 100 µM (inactive) | > 100 µM (inactive) | > 100 µM (inactive) | > 100 µM (inactive) | > 100 µM (inactive) | > 100 µM (inactive) | > 100 µM (inactive) | > 100 µM (inactive) | > 100 µM (inactive) | > 100 µM (inactive) | > 100 µM (inactive) | > 100 µM (inactive) | > 100 µM (inactive) | > 100 µM (inactive) | > 100 µM (inactive) | > 100 µM (inactive) | > 100 µM (inactive) | > 100 µM (inactive) | > 100 µM (inactive) | –
7 | CCC(=O)COc1ccc(NC(NC(=O)C(C(F)(F)F)C(F)(F)F)(C(F)(F)F)C(F)(F)F)cc1 | 36.5 µM (inactive) | 18.9 µM (inactive) | > 100 µM (inactive) | 59.4 µM (inactive) | 33.5 µM (inactive) | 22.2 µM (inactive) | 20.6 µM (inactive) | 21.2 µM (inactive) | 26.5 µM (inactive) | 19.2 µM (inactive) | 36.1 µM (inactive) | 23.9 µM (inactive) | 94 µM (inactive) | 16.9 µM (inactive) | 41.3 µM (inactive) | 55.6 µM (inactive) | 39.8 µM (inactive) | 14.3 µM (inactive) | 18.4 µM (inactive) | –
8 | COc1cccc(NC(=O)C(=O)C2C=CCS2(=O)=O)c1 (stereo not drawn) | > 100 µM (inactive) | – | > 100 µM (inactive) | > 100 µM (inactive) | > 100 µM (inactive) | – | – | > 100 µM (inactive) | – | > 100 µM (inactive) | > 100 µM (inactive) | 53.8 µM (inactive) | > 100 µM (inactive) | > 100 µM (inactive) | > 100 µM (inactive) | > 100 µM (inactive) | > 100 µM (inactive) | > 100 µM (inactive) | > 100 µM (inactive) | –
9 | C=C1C=CC2(Br)OC3CC(C)(Cl)C(Br)CC13C2(C)C (stereo not drawn) | 19.1 µM (inactive) | – | 23.1 µM (inactive) | 20 µM (inactive) | 23.6 µM (inactive) | – | – | 16.1 µM (inactive) | – | 19.1 µM (inactive) | 29.5 µM (inactive) | 30.7 µM (inactive) | 20 µM (inactive) | 23.2 µM (inactive) | 24.2 µM (inactive) | 30.5 µM (inactive) | 20.7 µM (inactive) | 16.9 µM (inactive) | 15.4 µM (inactive) | –
10 | CCOP(C)(=O)C(Nc1ccc(F)cc1)c1ccc(F)cc1 (stereo not drawn) | > 100 µM (inactive) | > 100 µM (inactive) | > 100 µM (inactive) | > 100 µM (inactive) | > 100 µM (inactive) | > 100 µM (inactive) | > 100 µM (inactive) | > 100 µM (inactive) | > 100 µM (inactive) | > 100 µM (inactive) | > 100 µM (inactive) | > 100 µM (inactive) | > 100 µM (inactive) | > 100 µM (inactive) | > 100 µM (inactive) | > 100 µM (inactive) | 71.3 µM (inactive) | > 100 µM (inactive) | > 100 µM (inactive) | –
11 | CC(=O)Oc1cc2c[n+](C)c3c4cc(OC(C)=O)c(OC(C)=O)cc4ccc3c2cc1OC(C)=O | 4.23 µM (inactive) | 2.54 µM (inactive) | 3.71 µM (inactive) | > 100 µM (inactive) | 4.68 µM (inactive) | 3.78 µM (inactive) | 1.87 µM (inactive) | 6.5 µM (inactive) | – | 1.54 µM (inactive) | 4.48 µM (inactive) | 2.73 µM (inactive) | 2.24 µM (inactive) | > 20 µM (inactive) | 3.31 µM (inactive) | 4.32 µM (inactive) | 1.36 µM (inactive) | – | 0.647 µM (active) | –
12 | [N-]=[N+]=NI1OC(C(F)(F)F)(C(F)(F)F)c2ccccc21 | 17.8 µM (inactive) | 18.6 µM (inactive) | 15.1 µM (inactive) | 13.9 µM (inactive) | 13.9 µM (inactive) | 18 µM (inactive) | 12.1 µM (inactive) | 13.8 µM (inactive) | 15.1 µM (inactive) | 18.4 µM (inactive) | 8.55 µM (inactive) | 16.3 µM (inactive) | 14.7 µM (inactive) | 12.1 µM (inactive) | 19.1 µM (inactive) | 21.5 µM (inactive) | 11 µM (inactive) | 14.7 µM (inactive) | 5.83 µM (inactive) | –
13 | CCOC(=O)C1C=C2O[C@@H]3OC4(CCCCC4)O[C@@H]3C2C2C(=O)CCC(=O)[C@@]12C(=O)OC (stereo partly drawn) | > 100 µM (inactive) | – | > 100 µM (inactive) | > 100 µM (inactive) | > 100 µM (inactive) | – | – | > 100 µM (inactive) | – | > 100 µM (inactive) | > 100 µM (inactive) | > 100 µM (inactive) | 82.4 µM (inactive) | > 100 µM (inactive) | > 100 µM (inactive) | > 100 µM (inactive) | > 100 µM (inactive) | > 100 µM (inactive) | > 100 µM (inactive) | –
14 | CSC(=S)NNC(=O)c1ccncc1 | 16.1 µM (inactive) | – | 20.8 µM (inactive) | 18.9 µM (inactive) | 18.1 µM (inactive) | – | – | 34.9 µM (inactive) | – | 18.2 µM (inactive) | 21.1 µM (inactive) | 19.8 µM (inactive) | 21.4 µM (inactive) | 22.3 µM (inactive) | 11.3 µM (inactive) | 28.8 µM (inactive) | 17.8 µM (inactive) | 23.2 µM (inactive) | 16.9 µM (inactive) | –
15 | COC(CN(C=O)[C@@H](c1ccc(Cl)cc1)c1cc2ccccc2o1)OC | 18.5 µM (inactive) | 18.3 µM (inactive) | 22 µM (inactive) | 18.5 µM (inactive) | 20.8 µM (inactive) | 14.8 µM (inactive) | 11.6 µM (inactive) | 17.6 µM (inactive) | 18.5 µM (inactive) | 18.1 µM (inactive) | 15.8 µM (inactive) | 16 µM (inactive) | 12.7 µM (inactive) | 16 µM (inactive) | 16.6 µM (inactive) | 0.841 µM (active) | 16.5 µM (inactive) | 17.8 µM (inactive) | 14.5 µM (inactive) | –
16 | COc1cccc(NC(=O)C(C)(C)C)c1C=O | 48.3 µM (inactive) | – | > 100 µM (inactive) | > 100 µM (inactive) | 56.2 µM (inactive) | – | – | > 100 µM (inactive) | – | 33.4 µM (inactive) | 56.6 µM (inactive) | 57.9 µM (inactive) | 37 µM (inactive) | 19.4 µM (inactive) | 34.7 µM (inactive) | 82.8 µM (inactive) | 34.3 µM (inactive) | 31 µM (inactive) | 55.2 µM (inactive) | –
